The text below walks through data of patent publication US20180009764A1, “METHOD FOR TREATING MACROPHAGE MIGRATION INHIBITORY FACTOR (MIF)-IMPLICATED DISEASES AND CONDITIONS WITH IODO PYRIMIDINE DERIVATIVES” (UNIVERSITY OF LOUISVILLE RESEARCH FOUNDATION, INC., priority 2009, published 2018).

Molecules are shown by their SMILES.

Broadly, the efflux ratio is a quotient of directional permeabilities that is used to spot active efflux. One may read the IC50 as the concentration that inhibits the measured activity by half. What is called fraction unbound is the share of the substance not bound to proteins or other matrix.

A short description of data set [1]: Caco-2 cell permeability and transport. The format is in vitro ADME. Details: Caco-2 Permeability Papp B-A / Caco-2 Permeability Papp A-B: unit not given here. Conditions: human, Caco-2, pH 7.4. How it is done: (§1) Cell permeability and transport mechanisms in Caco-2 and MDR1-MDCK monolayers experiments were performed in triplicate in the apical-to-basolateral and basolateral-to-apical direction using […]® wells containing either Caco-2 or MDR1-MDCK monolayers. A modified Hanks buffer pH 7.4 was used in both reservoir and receiver wells with the addition of 1% BSA in the receiver side. Confluent monolayers were used and their integrity was verified using reference compounds (Atenolol as a low permeability reference compound and Propanolol as a high permeability reference compound). A sample in the basolateral and apical sides was taken after 2 hours and the concentration measured by LC/MS-MS.

Another data set concerns Caco-2 monolayers. Nature of the data set: Caco-2 cell permeability and transport. The format is in vitro ADME. Details: Caco-2 Permeability Papp B-A / Caco-2 Permeability Papp A-B: unit not given here. How it is done: as §1
For orientation: Passage across Caco-2 layers is used to estimate intestinal permeability.

Data set [2] is described as follows: Microsomal stability in human liver microsomes. The format is in vitro ADME. Conditions: both, human, microsomes, pH 7.4. How it is done:
Stability in human liver microsomes was tested over […] at 37° C. using pooled mixed gender human liver microsomes. Liver microsomes were prepared at 1.0 mg/ml of microsomal protein in a 100 mM potassium phosphate pH 7.4 buffer with 1 mM NADPH. The media was incubated at 37° C. with the compound in solution in DMSO. The concentration of the compound was followed by LC/MS-MS as a function of time. Samples were assayed at t=0, 30, 60 and 120 minutes. Testosterone was used as a positive control. The same experiment was performed with mouse liver microsomes instead of human liver microsomes.

Another data set deals with Du 145. Briefly: Inhibition of tumor cells proliferation (CellTiter Glo). The format is cell-based. Conditions: Homo sapiens, 72 hours. How it is done:
Inhibition of the proliferation of tumor cells was investigated in vitro in several tumor cell lines. Cells of the desired tumor cell line were plated at 2×10^5 cells/ml in 96 well plates. Twice the indicated concentrations of the compounds of the invention were added to cells the following day in an equal volume of media. 72 hours later, cells were lysed and subjected to ATP determination using the CellTiter Glo-Luminescent Cell Viability Assay kit (Promega, Madison, Wis.). Experiments were done in triplicate. Results for the inhibition of cells proliferation are reported as IC50 (the concentration leading to a 50% inhibition of proliferation of the cell population) and are listed in Table 6. FIGS. 3 and 4 show bar graphs comparing the IC50s of specific embodiments of compounds of the invention across multiple tumor cell lines.
(ATP-based viability assays read luminescence as a measure of living cells.)

The target in a further data set is T1, MIF (Homo sapiens, UniProt P14174).
T1 construct: the enzymatic activity of MIF present in cell lysates; endogenous in cells
T1 sequence (P14174 2-115 limits assumed): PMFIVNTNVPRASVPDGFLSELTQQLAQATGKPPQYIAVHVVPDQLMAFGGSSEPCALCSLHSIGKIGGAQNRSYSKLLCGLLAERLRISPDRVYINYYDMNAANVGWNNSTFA
Briefly: MIF cell lysate enzymatic inhibition. The format is biochemical. Conditions: cell lysates. As for the experimental part: Normal or transformed cell lysates can be used to determine the concentration inhibiting the enzymatic activity of MIF present in cell lysates. Cells are cultured in the appropriate media to the required number of cells, collected, and lysed. Compounds to be characterized are solubilized in DMSO and serial dilutions are performed in order to obtain a range of concentrations including complete and no quantifiable inhibition.

The test system of a further data set is p53. Briefly: p53 up regulation, p53 luciferase assay. The format is cell-based. The settings on record: 10 μM; FIG. 5. How it is done: The up regulation of p53 was determined using a commercially available p53 luciferase assay kit. 1×10^5 cells/ml were plated in a 24 well plate and allowed to adhere overnight. MIF antagonists were added to the cells at the indicated concentrations for 16 hours and transiently co-transfected with 0.125 μg/well of p53-responsive luciferase promoter plasmid (Promega, Madison, Wis.) together with 0.0125 μg/well Renilla pRL-null plasmid (Promega) using Lipofectamine (Invitrogen) transfection reagent. After 24 hrs, Firefly and Renilla luciferase activities were measured by the Dual Luciferase Reporter Assay System (Promega, Madison, Wis.) on a TD-20/20 luminometer (Turner Designs).

In data set [3] the test system is Chick Chorioallantoic Membrane (CAM). Briefly: CAM assay with matrigel plugs. The format is in vivo. How it is done:
(§2) 8 groups with 10 embryos in each group were used in the experiment described below. Fresh fertile eggs were incubated for 3 days in a standard egg incubator at 37° C. for 3 days. On Day 3, eggs were cracked under sterile conditions and embryos were placed into 20×100 mm plastic plates and cultivated at 37° C. in an embryo incubator with a water reservoir on the bottom shelf. Air was continuously bubbled into the water reservoir using a small pump so that the humidity in the incubator is kept constant. On Day 6, a sterile silicon “o” ring was placed on each CAM and test compound dissolved in 0.5% methylcellulose was placed into each “o” ring in a sterile hood. Paclitaxel was used as a positive control. Embryos were returned to the incubator after addition of test material. Control embryos received 10 μL of vehicle alone. On Day 8, embryos were removed from the incubator and kept at room temperature while blood vessel density were determined under each “o” ring using an image capturing system at a magnification of 160×. The blood vessel density was measured using an angiogenesis scoring system in that arithmetic numbers 0 to 5 (or exponential numbers 1 to 32) are used to indicate number of blood vessels present at the treatment sites on the CAM. Number 5 represents the highest density and 0 represents no angiogenesis. The percent of inhibition at each dosing site was calculated using the score recorded for that site divided by the mean score obtained from the appropriate control samples for each individual experiment. The percent of inhibition for each dose of a given compound was calculated by pooling all results obtained for that dose from 8-10 embryos.
Another experiment was performed using a protocol similar to the one described above but using matrigel plugs instead of o ring to deliver the test material to the CAM. Results are summarized in Table 9 below and show a statistically significant inhibition of angiogenesis at the high concentrations of test material.

Data set [4] has the same test system. Nature of the data set: Chick chorioallantoic membrane (CAM) assay, o ring. The format is in vivo. Conditions: 6 nM per CAM; o ring. As for the experimental part:
as §2

The next data set in a line: in vitro. The format is in vitro ADME. The settings on record: human, plasma, Human Plasma Protein Binding % Bound. The text has this: Plasma protein binding was ascertained using dialysis equilibrium methods known in the art.

`Fc1ncccc1-c1cc(I)ncn1` [ACT-MIF-011, 4-Iodo-6-(2-fluoropyridin-3-yl)pyrimidine]: the efflux ratio at 2 h in data set [1] was determined as 0.6. In the data set on Caco-2 monolayers, the “Caco-2 Permeability Class” value was “High”.
Take `Fc1ccc(-c2cc(I)ncn2)c(F)c1` [ACT-MIF-017, 4-Iodo-6-(2,4-difluorophenyl)pyrimidine]: the “Metabolic Stability in Human Microsomes % Remaining” value in [2] (0 h) came to 100%; in data set [2] (1 h), 0%. For the same compound, the IC50 is < 10000 nM with Du 145 and 190 nM against MIF.
Turning to `CC(=O)Nc1cccc(-c2cc(I)ncn2)c1` [ACT-MIF-021, 4-Iodo-6-(3-acetylaminophenyl)pyrimidine], the results for the “Metabolic Stability in Human Microsomes % Remaining” value in data set [2] (0 h) and in data set [2] (1 h) were 100% and 73%, respectively. The same compound gave a concentration for half-maximal inhibition (IC50) on MIF of 570 nM.
Regarding `Ic1cc(-c2ccsc2)ncn1` [ACT-MIF-022, 4-Iodo-6-(thiophen-3-yl)pyrimidine], in the data set with Du 145, the IC50 was < 40000 nM.
With `Ic1cc(-c2cncc3ccccc23)ncn1` [ACT-MIF-025, 4-Iodo-6-(isoquinolin-4-yl)pyrimidine], the efflux ratio at 2 h in data set [1] came to 1.5. The “Caco-2 Permeability Class” value in the data set with Caco-2 monolayers is “Low”.
Regarding `Ic1cc(-c2cccs2)ncn1` [ACT-MIF-030, 4-Iodo-6-(thiophen-2-yl)pyrimidine], the p53 regulation entry in the data set on p53 is recorded as “implicated in p53 regulation”. For the same compound, the “Blood Vessel Counts” value in data set [3] (0.3 nM per CAM) is recorded as 35.6 ± 1.0; in [3] (3 nM per CAM), 32.7 ± 3.2; in data set [3] (30 nM per CAM), 28.1 ± 2.0.
As for `CCOc1ccc(-c2cc(I)ncn2)cc1F` [ACT-MIF-033], the efflux ratio at 2 h in data set [1] amounted to 1.1. In addition, the “Caco-2 Permeability Class” value with Caco-2 monolayers was “High”. Besides, the “Caco-2 Permeability Papp B-A” value in the data set with Caco-2 monolayers (basolateral-to-apical, pH 7.4, 2 hours) was found to be 3.0. In addition, the “Metabolic Stability in Human Microsomes % Remaining” value in data set [2] (0 h) amounted to 100%; in data set [2] (1 h), 82%. Moreover, the IC50 was < 5000 nM in the data set on Du 145 and 115 nM on MIF. Besides, the p53 regulation entry in the data set on p53 is “implicated in p53 regulation”.
`NC(=O)c1ccc(-c2cc(I)ncn2)cc1` [ACT-MIF-034, 4-Iodo-6-(4-aminocarbonylphenyl)pyrimidine]: the results for the IC50 in the data set on Du 145 and on MIF were < 100000 nM and 270 nM, respectively. In addition, in the data set on p53, the p53 regulation entry was “implicated in p53 regulation”.
For the compound `Ic1cc(-c2ccnc3ccccc23)ncn1` [ACT-MIF-036, 4-Iodo-6-(quinolin-4-yl)pyrimidine], the IC50 on MIF turned out to be 230 nM.
For `CC(=O)O[C@H]1C(=O)[C@@]2(C)[C@H]([C@H](OC(=O)c3ccccc3)[C@]3(O)C[C@H](OC(=O)[C@H](O)[C@@H](NC(=O)c4ccccc4)c4ccccc4)C(C)=C1C3(C)C)[C@]1(OC(C)=O)CO[C@@H]1C[C@@H]2O` [Paclitaxel, reference compound], the “Blood Vessel Density” value in data set [4] was found to be 2.8 ± 0.7. Further, the “Blood Vessel Counts” value in [3] (2 nM per CAM) is on record as 15.5 ± 2.1.
Take `CC(=O)CC(c1ccccc1)c1c(O)c2ccccc2oc1=O` (stereo not shown) [Warfarin, reference compound]: in the data set “in vitro”, the fraction unbound came to 0.01.
